Test results as given in patent US20070232577A1, “Synthetic pentacyclic triterpenoids and derivatives of betulinic acid and betulin” (Advanced Life Sciences, Inc., priority 2006, published 2007).
Values after ≈ are worked out from the molar mass of the structure shown.

Tests used:
SK-MEL-2 (melanoma) [1] = test system: SK-MEL-2 (melanoma)
Protocol: (§2) Cells were plated, the evening before treatment, for each treatment on 96-well plates (1×10^4 cells/well) in 100 μL volume per well. Drug solutions were prepared by diluting each test compound in DSMO (10 mM) with the appropriate cell growth media for each individual cell line, or in “Universal Media” if several cell lines were to be assayed in parallel, immediately prior to cell treatment. Universal Media consisted of 5 mL sodium pyruvate (100×liquid stock, CellGro), 5 mL glucose (100×, 45% liquid stock, CellGro), 5 mL Penicillin/Streptomycin (100×liquid stock, CellGro), 10 mL sodium bicarbonate (50×liquid stock, CellGro), 25 mL Fetal Calf Serum, 1.25 mL insulin (4 mg/mL, Gibco) and 449 mL RPMI media with 2 mM glutamine for a total volume of 500 mL. Cells were treated by aspirating media from each well and adding 80 μL of each drug solution to the attached cells. All treatments were performed in triplicate. Growth media (80 μL) were added to 3 blank wells (no cells) to measure background from the growth media Growth media alone (no DMSO or test compond) was added to 2 wells containing cells to measure the baseline MTS activity and vehicle (DMSO) control solutions were also included to monitor basal toxicity from DMSO. Cells were incubated at 37° C. for 72 h. MTS reagent (per 96-well plate) were prepared by combining 2 mL of MTS working solution (Cell Titer AQueous Non-Radioactive Cell Proliferation Assay, Promega, cat#G1112), 100 μL of 0.92 mg/mL phenazine methosulfate/Dulbecco's PBS and 2.1 mL growth media. MTS reagent (40 μL) were added to each well and incubated at 37° C. for 1.5 to 4 h. Plates were gently shaken by hand until solution in each well appeared homogenous. Absorbances at 490 nm were measured on a plate reader at multiple time points following the addition of MTS reagent for each plate. Triplicate absorbance (490 nm) measurements were averaged following background (no cell) subtraction for each drug concentration. Percent Cell Viability was calculated for each drug concentration using the following equation: {[Absorbances(drug treated)]/[Absorbances(DMSO treated)]}×100%
(§3) Percent viability (y-axis) was plotted against drug concentration (x-axis) and the resulting graph was used to determine the 50% inhibitory concentration (IC50) for each drug.

SK-MEL-2 = assay: Annexin-V assay (apoptosis versus necrosis); type: cell-based; settings: for selective apoptosis and dose dependence (in words): cell line not stated, above optimal dose cellular damage and non-apoptotic cell death
Protocol: Cells were plated (8.75×10^5 cells/6 cm. diameter tissue culture plates), the evening before treatment, in 4 mL volume per plate. This cell density is equivalent to the cell density used in the MTS and Caspase assays (1×10^4 cells/well (96-well plate). Drug solutions were prepared, immediately prior to cell treatment, in the same as described for caspase assay
Growth media alone (no DMSO or drug) was added to a plate containing cells to measure the baseline-Annexin-V reactivity and vehicle (DMSO) alone control solutions were also prepared to monitor Annexin-V reactivity from DMSO. Cells were incubated at 37° C. for 8 h. Growth media (3 mL) was removed from each plate and added to a 15 mL conical tube containing 0.333 mL FCS (final FCS concentration of 10%). The media was saved to include any apoptotic/dead cells that may have detached from the plate during drug treatment. FCS was added to the media to prevent further cell damage and improve the efficiency of cell pelleting during subsequent centrifugation steps (empirical observation). Adherent cells were rinsed once with PBS and 1 mL of trypsin was added. Plates were rotated several times to assure coating of the entire surface with trypsin which was then removed. Plates were incubated at 37° C. for 4-5 min. Trypsinized cells were re-suspended in the saved media for each sample. Cell suspension was placed back into 15 mL tubes, which were then cooled on ice. Cells were re-suspended by pipetting 7-8 times. The tubes were centrifuged at 130×g for 5 min at 4° C. The resulting cell pellets were re-suspended in the ice cold 1 mL of 1× Nexin Buffer (Guava Nexin kit, Guava Technologies) and transferred to 1.5 mL conical microcentrifuge tubes to rinse cells with residual growth media. This procedure was repeated by centrifugation of cells at 130×g for 5 min, at 4° C. Re-suspension of the resulting cell pellet in 50 μL Nexin Staining Solution (Guava Nexin kit, Guava Technologies) was followed by incubation on ice, in the dark, for 20 min. Guava Samples were analyzed immediately on the Guava flow cytometer, using the Guava Nexin software package (see Guava user's manual and Guava Nexin kit protocol on data acquisition and analysis protocols).

[2] = test system: OVCAR-3 (ovarian carcinoma); assay: MTS cell viability assay, OVCAR-3; type: cell-based; settings: Homo sapiens, 72 h
Protocol: (§1) All treatments were performed in triplicate. […] Cells were incubated at 37° C. for 72 h.

A-375 (melanoma) = assay: MTS cell viability assay, A-375; type: cell-based; settings: Homo sapiens, 72 h
Protocol: as §1

Daoy (glioblastoma) = assay: MTS cell viability assay, Daoy; settings: Homo sapiens, Daoy, 72 h, read-out: IC50 Daoy
Protocol: as §2, §3

[3] = test system: SK-MEL-2, A-375, Daoy, LN-229, OVCAR-3, HT-29, MCF-7 cell lines; type: cell-based
Protocol: as §1

MCF-7 (breast carcinoma) = assay: MTS cell viability assay, MCF-7; type: cell-based; settings: Homo sapiens, MCF7, 72 h
Protocol: as §1

SK-MEL-2 (melanoma) [4] = assay: MTS cell viability assay, SK-MEL-2; settings: Homo sapiens, SK-MEL-2, 72 h, read-out: IC50 SK-MEL-2
Protocol: as §2, §3

SK-MEL-2 cells = assay: Caspase activation assay, SK-MEL-2; type: cell-based; settings: for caspase activating property compared with betulinic acid (1): SK-MEL-2, 5, 15, 50 μM, 2-24 h, absence of FBS
Protocol: All treatments were performed in duplicate. […] Cells were incubated at 37° C. for 8 h. Caspase assay reagent (per 96-well plate) was prepared according to manufacturer's instructions (Homogeneous Caspases Assay, fluorometric, Roche) by combining 6.3 mL Incubation Buffer with 0.7 mL of Substrate Stock Solution. Caspase assay reagent (70 μL) was added to each well; the plate was gently shaken by hand for 15-20 seconds and incubated at 37° C. for 4 h.
Fluorescent emission was measured at 535 nm on a plate reader using the “homogeneous caspase” program (excitation Wavelength=490 nm, emission wavelength=535 nm). Duplicate wells for each treatment were averaged following background (no cells) subtraction (emission 535 nm value from all experimental emission 535 nm values) for each drug concentration.
DMSO treatment represented baseline caspase activation in the absence of drug. The percent changes in caspase activity were plotted on the y-axis for each drug treatment.
Caspase activation assays were conducted to further characterize the mode of cell death. A treatment time and dose at which maximum caspase activation was observed prior to massive cell destruction would be indicative of apoptosis induction. SK-MEL-2 cells were treated with 5, 15, and 50 μM of the compound for 2, 4, 6, 8, 16, and 24 h in the absence of FBS (Fetal Bovine Serum).

HT-29 (colon carcinoma) = assay: MTS cell viability assay, HT-29; type: cell-based; settings: Homo sapiens, 72 h
Protocol: as §1

LN-229 (glioblastoma) = assay: MTS cell viability assay, LN-229; type: cell-based; settings: Homo sapiens, 72 h
Protocol: as §1

Compound | improvement in cytotoxicity relative to betulinic acid 1 in SK-MEL-2 (SK-MEL-2 (melanoma) [1]) | selective apoptosis and dose dependence (in words) (SK-MEL-2) | IC50 [2] [µg/mL] | IC50 (A-375 (melanoma)) [µg/mL] | IC50 (Daoy (glioblastoma)) [µg/mL] | cytotoxic potency across the cell line panel (in words) [3] | IC50 (MCF-7 (breast carcinoma)) [µg/mL] | IC50 (SK-MEL-2 (melanoma) [4]) [µg/mL] | caspase activating property compared with betulinic acid (1) (SK-MEL-2 cells) | IC50 (HT-29 (colon carcinoma)) [µg/mL] | IC50 (LN-229 (glioblastoma)) [µg/mL] | caspase activation in SK-MEL-2 (in words) (SK-MEL-2 cells) | apoptosis versus necrosis by the Annexin assay (in words) (SK-MEL-2; SK-MEL-2) | rank as apoptosis inducer within the collection (in words) (SK-MEL-2; caspase and Annexin assays, SK-MEL-2)
C=C(C)[C@@H]1CC[C@]2(C(=O)O)CC[C@]3(C)[C@H](CC[C@@H]4[C@@]5(C)CC[C@H](OC(=O)/C=C/c6ccc(OC(C)=O)c(OC(C)=O)c6)C(C)(C)[C@@H]5CC[C@]43C)[C@@H]12 [Compound 24, (1R,3aS,5aR,5bR,7aR,9S,11aR,11bR,13aR, 13bR)-9-((E)-3-(3,4-diacetoxyphenyl)acryloyloxy)-5a,5b,8,8,11a-pentamethyl-1-(prop-1-en-2-yl)icosahydro-1H-cyclopenta[a]chrysene-3a-carboxylic acid] | greater than 5 fold |  |  |  |  |  |  |  |  |  |  |  |  | 
C=C(C)[C@@H]1CC[C@]2(COC3CCCCO3)CC[C@]3(C)[C@H](CC[C@@H]4[C@@]5(C)CC6=C(ON(O)C6)C(C)(C)[C@@H]5CC[C@]43C)[C@@H]12 (stereo partly drawn) [Compound 32, (1R,3aS,5aR,5bR,7aR,12aR,12bR,14aR,14bR)-1-isopropenyl-5a,5b,8,8,12a-pentamethyl-3a-[(tetrahydro-2H-pyran-2-yloxy)methyl]-1,2,3,3a,4,5,5a,5b,6,7,7a,8,11,12,12a,12b,13,14, 14a,14b-icosahydro-10H-cyclopenta[7,8]chryseno[3,2-d]isoxazol-10-ol] |  | induced selective apoptosis at an optimal dose | 6 (≈ 10.6 µM) | 6 (≈ 10.6 µM) | 6 (≈ 10.6 µM) | potent across the entire cell line panel | 6 (≈ 10.6 µM) | 5 (≈ 8.81 µM) | more robust caspase activating property than betulinic acid | 8 (≈ 14.1 µM) | 6 (≈ 10.6 µM) |  |  | 
C=C(C)[C@@H]1CC[C@]2(CO)CC[C@]3(C)[C@H](CC[C@@H]4[C@@]5(C)CC6=C(ON(O)C6)C(C)(C)[C@@H]5CC[C@]43C)[C@@H]12 [Compound 33, (1R,3aS,5aR,5bR,7aR,12aR,12bR,14aR,14bR)-3a-(hydroxymethyl)-1-isopropenyl-5a,5b,8,8,12a-pentamethyl-1,2,3,3a,4,5,5a,5b,6,7,7a,8,11,12,12a,12b,13,14, 14a,14b-icosahydro-10H-cyclopenta[7,8]chryseno[3,2-d]isoxazol-10-ol] |  |  |  |  |  |  |  |  |  |  |  | induced caspase activation |  | 
C=C(C)[C@@H]1CC[C@]2(CO)CC[C@]3(C)[C@H](CC[C@@H]4[C@@]5(C)C=C(C#N)C(=O)C(C)(C)[C@@H]5CC[C@]43C)[C@@H]12 [Compound 38, (1R,3aS,5aR,5bR,7aR,11aR,11bR,13aR,13bR)-3a-(hydroxymethyl)-5a,5b,8,8,11a-pentamethyl-9-oxo-1-(prop-1-en-2-yl)-2,3,3a,4,5,5a,5b,6,7,7a, 8,9,11a,11b,12,13,13a,13b-octadecahydro-1H-cyclopenta[a]chrysene-10-carbonitrile] |  |  | 7 (≈ 15.1 µM) | 6 (≈ 12.9 µM) | 8 (≈ 17.3 µM) | potent across the entire cell line panel |  | 6 (≈ 12.9 µM) | more robust caspase activating property than betulinic acid | 8 (≈ 17.3 µM) | 6 (≈ 12.9 µM) | activated caspases | inducing apoptosis over necrosis robustly | most potent apoptosis inducer
C=C(C)[C@@H]1CC[C@]2(COC(=O)CBr)CC[C@]3(C)[C@H](CC[C@@H]4[C@@]5(C)C=C(C#N)C(=O)C(C)(C)[C@@H]5CC[C@]43C)[C@@H]12 [Compound 39, ((1R,3aS,5aR,5bR,7aR,11aR,11bR,13aR,13bR)-10-cyano-5a,5b,8,8,11a-pentamethyl-9-oxo-1-(prop-1-en-2-yl)-2,3,3a,4,5,5a,5b,6,7,7a,8,9,11a,11b,12,13,13a,13b-octadecahydro-1H-cyclopenta[a]chrysen-3a-yl)methyl 2-bromoacetate] |  |  | 7 (≈ 12 µM) | 4 (≈ 6.84 µM) | < 2 |  | 13 (≈ 22.2 µM) | 20 (≈ 34.2 µM) |  | 6 (≈ 10.3 µM) | 7 (≈ 12 µM) | induced caspase activation |  | 
C=C(C)[C@@H]1CC[C@]2(CO)CC[C@]3(C)[C@H](CC[C@@H]4[C@@]5(C)CCC(NCCc6ccc(O)cc6)C(C)(C)[C@@H]5CC[C@]43C)[C@@H]12 (stereo partly drawn) [Compound 75, 4-(2-((1R,3aS,5aR,5bR,7aR,11aR,11bR,13aR,13bR)-3a-(hydroxymethyl)-5a,5b,8,8,11a-pentamethyl-1-(prop-1-en-2-yl)icosahydro-1H-cyclopenta[a]chrysen-9-ylamino)ethyl)phenol] |  | induced selective apoptosis at an optimal dose |  |  |  |  |  |  | more robust caspase activating property than betulinic acid |  |  |  |  | 
C=C(C)[C@@H]1CC[C@]2(C(=O)O)CC[C@]3(C)[C@H](CC[C@@H]4[C@@]5(C)CCC(NCCNC(=O)OC(C)(C)C)C(C)(C)[C@@H]5CC[C@]43C)[C@@H]12 (stereo partly drawn) [Compound 79, (1R,3aS,5aR,5bR,7aR,11aR,11bR,13aR,13bR)-9-(2-(tert-butoxycarbonylamino)ethylamino)-5a,5b,8,8,11a-pentamethyl-1-(prop-1-en-2-yl)icosahydro-1H-cyclopenta[a]chrysene-3a-carboxylic acid] |  | induced selective apoptosis at an optimal dose |  |  |  |  |  |  |  |  |  |  |  | 
C=C(C)[C@@H]1CC[C@]2(C(=O)O)CC[C@]3(C)[C@H](CC[C@@H]4[C@@]5(C)CC[C@H](NCCc6ccc(O)cc6)C(C)(C)[C@@H]5CC[C@]43C)[C@@H]12 [Compound 82, (1R,3aS,5aR,5bR,7aR,9S,11aR,11bR,13aR,13bR)-9-(4-hydroxyphenethylamino)-5a,5b,8,8,11a-pentamethyl-1-(prop-1-en-2-yl)icosahydro-1H-cyclopenta[a]chrysene-3a-carboxylic acid] |  |  | 6 (≈ 10.4 µM) | 5 (≈ 8.68 µM) | 5 (≈ 8.68 µM) | potent across the entire cell line panel | 6 (≈ 10.4 µM) | 5 (≈ 8.68 µM) |  | 4 (≈ 6.95 µM) | 5 (≈ 8.68 µM) |  |  | 
CC(C)[C@@H]1CC[C@]2(C(=O)O)CC[C@]3(C)[C@H](CC[C@@H]4[C@@]5(C)CC[C@H](N)C(C)(C)[C@@H]5CC[C@]43C)[C@@H]12 [Compound 86, (1S,3aS,5aR,5bR,7aR,9S,11aR,11bR,13aR,13bR)-9-amino-1-isopropyl-5a,5b,8,8,11a-pentamethylicosahydro-1H-cyclopenta[a]chrysene-3a-carboxylic acid] |  |  | 6 (≈ 13.1 µM) | 5 (≈ 10.9 µM) | 6 (≈ 13.1 µM) | potent across the entire cell line panel | 6 (≈ 13.1 µM) | 6 (≈ 13.1 µM) |  | 5 (≈ 10.9 µM) | 5 (≈ 10.9 µM) |  |  | 
